# Measurements reported in ChEMBL document CHEMBL5050844 (2019).
# Experiments:
# Type in all cases: functional, T cell line
# [1] = Induction of anti-CD3/CD28 antibodies-stimulated human T cell activation at 1 uM assessed fold increase in IL-2 secretion measured by ELISA assay
# [2] = Induction of anti-CD3 antibodies-stimulated human T cell activation at 8 uM assessed fold increase in CD25 expression measured by ELISA assay; further: reference of the scale not given here
# [3] = Induction of anti-CD3/CD28 antibodies-stimulated human T cell activation at 0.3 uM assessed fold increase in CD25 expression measured by ELISA assay
# [4] = Induction of anti-CD3/CD28 antibodies-stimulated human T cell activation at 1 uM assessed fold increase in CD25 expression measured by ELISA assay
# [5] = Induction of anti-CD3 antibodies-stimulated human T cell activation at 1 uM assessed fold increase in CD25 expression measured by ELISA assay; further: reference of the scale not given here
# [6] = Induction of anti-CD3 antibodies-stimulated human T cell activation at 8 uM assessed fold increase in IL-2 secretion measured by ELISA assay; further: reference of the scale not given here
# [7] = Induction of anti-CD3 antibodies-stimulated human T cell activation at 1 uM assessed fold increase in IL-2 secretion measured by ELISA assay; further: reference of the scale not given here
# [8] = Induction of anti-CD3/CD28 antibodies-stimulated human T cell activation at 4 uM assessed fold increase in CD25 expression measured by ELISA assay
# [9] = Induction of anti-CD3/CD28 antibodies-stimulated human T cell activation at 0.3 uM assessed fold increase in IL-2 secretion measured by ELISA assay
# [10] = Induction of anti-CD3/CD28 antibodies-stimulated human T cell activation at 4 uM assessed fold increase in IL-2 secretion measured by ELISA assay
Compound,fold change (FC) [1],fold change (FC) [2],fold change (FC) [3],fold change (FC) [4],fold change (FC) [5],fold change (FC) [6],fold change (FC) [7],fold change (FC) [8],fold change (FC) [9],fold change (FC) [10]
"Cn1cnnc1C(F)[C@](C)(F)c1cccc(N2Cc3c(cccc3C(F)(F)F)C2=O)c1 (single isomer, unassigned)",<=1,0.601,<=1,<=1,<=0.6,0.051,<=0.05,1.01,<=1,<=1
Cc1ccc(C(=O)Nc2cc([C@H](C)Sc3nncn3C)ccn2)nc1C1CC1,2.51,<=0.6,<=1,<=1,<=0.6,<=0.05,<=0.05,1.01,2.51,5
C[C@H](Cc1nncn1C)c1cccc(NC(=O)c2cc(C3(O)COC3)cc(C(F)(F)F)n2)c1,1.01,>=1.001,>=1.76,>=1.76,0.601,0.101,<=0.05,>=1.76,<=1,5
Cn1cnnc1[C@H](F)[C@](C)(F)c1cccc(N2Cc3c(cc(C4CC4)cc3C(F)(F)F)C2=O)c1,1.01,>=1.001,1.01,1.01,0.801,0.101,0.051,1.01,<=1,2.51
C[C@@H](c1cccc(N2Cc3c(cccc3C(F)(F)F)C2=O)c1)[C@H](F)c1nncn1C (racemic),1.01,>=1.001,1.01,1.01,0.601,0.151,0.051,1.01,1.01,2.51
C[C@H](Sc1nncn1C)c1ccc(F)c(NC(=O)c2cccc(C(F)(F)F)n2)c1,1.01,<=0.6,<=1,1.01,<=0.6,0.051,<=0.05,1.01,1.01,2.51
COc1cc(C(=O)Nc2cccc([C@H](C)Sc3nncn3C)c2)nc(C(F)(F)F)c1,2.51,0.801,1.01,1.51,0.801,>=0.201,0.051,>=1.76,2.51,5
C[C@H](Cc1nncn1C)c1cc(N[C@@H](C)CO)nc(N2Cc3c(cccc3C(F)(F)F)C2=O)c1,1.01,>=1.001,1.01,1.01,0.601,0.151,0.051,1.01,1.01,2.51
C[C@H](Cc1nncn1C)c1cc(NC2COC2)cc(N2Cc3c(cccc3C(F)(F)F)C2=O)c1,1.01,0.801,1.01,1.01,0.601,0.051,0.051,1.01,<=1,1.01
C[C@H](Cc1nncn1C)c1cccc(N2Cc3c(cc([C@@H]4CCCNC4)cc3C(F)(F)F)C2=O)c1,5,>=1.001,1.01,1.31,0.601,>=0.201,0.101,1.51,2.51,5
CNC(=O)COc1ccc2cnc(C(=O)Nc3cccc([C@H](C)Sc4nncn4C)c3)cc2c1,1.01,0.801,1.01,1.01,<=0.6,<=0.05,<=0.05,1.01,<=1,1.01
C[C@H](Cc1nncn1C)c1cccc(N2Cc3c(cc(C4CC4)nc3C3CC3)C2=O)c1,1.01,0.801,1.01,1.01,0.601,>=0.201,0.051,>=1.76,1.01,5
Cc1ncc(C(=O)Nc2cccc([C@H](C)Sc3nncn3C)c2)nc1C1CC1,1.01,0.801,1.31,1.31,0.801,0.051,<=0.05,1.51,<=1,2.51
C[C@H](Sc1nncn1C)c1ccnc(NC(=O)c2cc(C3CC3)cc(C(F)(F)F)n2)c1,1.01,0.801,<=1,<=1,0.601,<=0.05,<=0.05,1.01,1.01,1.01
Cc1conc1C[C@@H](C)c1cccc(NC(=O)c2ccnc(C(F)(F)F)n2)c1,1.01,>=1.001,1.01,1.01,0.801,0.101,0.051,1.01,1.01,2.51
C[C@H](Cc1nncn1C)c1cccc(NC(=O)c2nc3c(C4CC4)cccc3[nH]2)c1,1.01,0.801,1.01,1.01,0.601,>=0.201,0.051,1.01,1.01,2.51
